Experimental data published in ChEMBL document CHEMBL3763138, “Synthesis and bioactivity of novel triazole incorporated benzothiazinone derivatives as antitubercular and antioxidant agent” (Bioorg Med Chem Lett, 2016).
Converted amounts (≈) assume the structure as drawn.

Legend:
[1] = test system: Mycobacterium tuberculosis; test: Antitubercular activity against Mycobacterium tuberculosis H37Ra ATCC 25177 at 30 ug/ml by XTT Reduction Menadione Assay; assay type: functional
[2] = test system: Mycobacterium tuberculosis; test: Antitubercular activity against Mycobacterium tuberculosis H37Ra ATCC 25177 at 10 ug/ml by XTT Reduction Menadione Assay; assay type: functional
[3] = test system: Mycobacterium tuberculosis; test: Antitubercular activity against Mycobacterium tuberculosis H37Ra ATCC 25177 at 3 ug/ml by XTT Reduction Menadione Assay; assay type: functional
[4] = Antioxidant activity assessed as DPPH radical scavenging activity by spectrophotometric assay; assay type: physicochemical
[5] = test system: Mycobacterium tuberculosis; test: Antitubercular activity against Mycobacterium tuberculosis H37Ra ATCC 25177 by XTT Reduction Menadione Assay; assay type: functional, organism-based
A549 [6] = test: Antiproliferative activity against human A549 cells at 30 ug/ml after 48 hrs by MTT assay; assay type: cell-based; details: a549, 48 h
A549 [7] = test: Antiproliferative activity against human A549 cells at 10 ug/ml after 48 hrs by MTT assay; assay type: cell-based; details: a549, 48 h
A549 [8] = test: Antiproliferative activity against human A549 cells at 3 ug/ml after 48 hrs by MTT assay; assay type: cell-based; details: a549, 48 h
A-431 [9] = test: Antiproliferative activity against human A431 cells at 30 ug/ml after 48 hrs by MTT assay; assay type: cell-based; details: a-431, 48 h
A-431 [10] = test: Antiproliferative activity against human A431 cells at 10 ug/ml after 48 hrs by MTT assay; assay type: cell-based; details: a-431, 48 h
A-431 [11] = test: Antiproliferative activity against human A431 cells at 3 ug/ml after 48 hrs by MTT assay; assay type: cell-based; details: a-431, 48 h
HeLa [12] = test: Antiproliferative activity against human HeLa cells at 30 ug/ml after 72 hrs by MTT assay; assay type: cell-based
HeLa [13] = test: Antiproliferative activity against human HeLa cells at 10 ug/ml after 72 hrs by MTT assay; assay type: cell-based
HeLa [14] = test: Antiproliferative activity against human HeLa cells at 3 ug/ml after 72 hrs by MTT assay; assay type: cell-based
[15] = (§1) Cytotoxicity against human A549 cells assessed as growth inhibition after 48 hrs by MTT assay; assay type: cell-based; details: A549 cells
A549 [16] = test: as §1; assay type: cell-based; details: a549, 48 h
[17] = (§2) Cytotoxicity against human HeLa cells assessed as growth inhibition after 72 hrs by MTT assay; assay type: cell-based; details: HeLa cells
HeLa [18] = test: as §2; assay type: cell-based; details: hela, 72 h
[19] = Cytotoxicity against human A431 cells assessed as growth inhibition after 48 hrs by MTT assay; assay type: cell-based, A-431
[20] = Selectivity index, ratio of GI50 for human HeLa cells to MIC for Mycobacterium tuberculosis H37Ra ATCC 25177; assay type: toxicity, cell-based; details: pooled result: one value given for 3 cell lines, strains, targets or settings, read-out: Selectivity Index
[21] = Selectivity index, ratio of GI50 for human HeLa cells to MIC for Mycobacterium bovis BCG ATCC 35743; assay type: toxicity, cell-based; details: pooled result: one value given for 3 cell lines, strains, targets or settings, read-out: Selectivity Index

| SMILES | inhibition at 30 µg/mL [1] | inhibition at 10 µg/mL [2] | inhibition at 3 µg/mL [3] | IC50 [4] | IC50 [5] | MIC [5] | Activity (A549 [6]) | Activity (A549 [7]) | Activity (A549 [8]) | Activity (A-431 [9]) | Activity (A-431 [10]) | Activity (A-431 [11]) | Activity (HeLa [12]) | Activity (HeLa [13]) | Activity (HeLa [14]) | GI50 at 48 h [15] | MIC (A549 [16]) | GI50 at 72 h [17] | GI50 (HeLa [18]) | GI50 at 48 h [19] | also measured |
| --- | --- | --- | --- | --- | --- | --- | --- | --- | --- | --- | --- | --- | --- | --- | --- | --- | --- | --- | --- | --- | --- |
| O=C1CSc2ccccc2N1Cc1cn(-c2cccc([N+](=O)[O-])c2)nn1 | 1.2% | 8.7% | 25.7% | 47.11 µg/mL (≈ 128 µM) | > 30 µg/mL | > 30 µg/mL | 22.02% | 0.19% | 12.32% | 29.7% | 25.4% | 17.2% | 37.5% | 13.3% | 11.9% | > 30 µg/mL | > 30 µg/mL | > 30 µg/mL | > 30 µg/mL | > 30 µg/mL | – |
| O=C1CSc2ccccc2N1Cc1cn(Cc2cccc([N+](=O)[O-])c2)nn1 | 60.2% | 48.9% | 34.8% | 34.12 µg/mL (≈ 89.5 µM) | 12.4 µg/mL (≈ 32.4 µM) | > 30 µg/mL | -11.78% | 0% | -9.71% | 15.6% | 16.5% | 13.9% | 20.1% | -3% | 0% | > 30 µg/mL | > 30 µg/mL | > 30 µg/mL | > 30 µg/mL | > 30 µg/mL | – |
| O=C1CSc2ccccc2N1Cc1cn(Cc2ccc([N+](=O)[O-])cc2)nn1 | 70.6% | 52.9% | 9.8% | 27.4 µg/mL (≈ 71.8 µM) | 9.2 µg/mL (≈ 24.1 µM) | > 30 µg/mL | 8.43% | 17.56% | 0% | 44.7% | 12.9% | 10.8% | 55.5% | 53.2% | 36.5% | > 30 µg/mL | > 30 µg/mL | > 30 µg/mL | > 30 µg/mL | > 30 µg/mL | selectivity ratio [20]: 1; selectivity ratio [21]: 1.02 |
| O=C1CSc2ccccc2N1Cc1cn(Cc2ccc(F)cc2)nn1 | 91.3% | 77.5% | 73.8% | 14.15 µg/mL (≈ 39.9 µM) | 1.24 µg/mL (≈ 3.5 µM) | 29.2 µg/mL (≈ 82.5 µM) | 30.9% | 4.1% | 12.32% | 44.5% | 31.1% | 17.3% | 51.3% | 46.3% | 45.1% | > 30 µg/mL | > 30 µg/mL | 28.6 µg/mL (≈ 80.8 µM) | > 30 µg/mL | > 30 µg/mL | selectivity ratio [20]: 1.02; selectivity ratio [21]: 1.09 |
| O=C1CSc2ccccc2N1Cc1cn(Cc2ccc(Cl)cc2)nn1 | 65.8% | 75.3% | 52.1% | 44.29 µg/mL (≈ 119 µM) | 2.67 µg/mL (≈ 7.2 µM) | > 30 µg/mL | 51.91% | 4.35% | 3.6% | 61.5% | 40.9% | 35% | 45.1% | 29.6% | 41.9% | 29.9 µg/mL (≈ 80.7 µM) | > 30 µg/mL | > 30 µg/mL | > 30 µg/mL | 27.3 µg/mL (≈ 73.6 µM) | – |
| O=C1CSc2ccccc2N1Cc1cn(-c2ccc([N+](=O)[O-])cc2)nn1 | 28.5% | 0.3% | 24.2% | 44.29 µg/mL (≈ 121 µM) | > 30 µg/mL | > 30 µg/mL | 38.71% | 24.73% | 33.22% | 0% | 0% | 0% | 35.8% | -0.9% | 13.3% | > 30 µg/mL | > 30 µg/mL | > 30 µg/mL | > 30 µg/mL | > 30 µg/mL | – |
| O=C1CSc2ccccc2N1Cc1cn(Cc2ccc(Br)cc2)nn1 | 49.8% | 38.4% | 58% | 14.14 µg/mL (≈ 34 µM) | > 30 µg/mL | > 30 µg/mL | 44.78% | -1.37% | -5.96% | 35.5% | 4% | 8.6% | 41.3% | 32.9% | 40.4% | > 30 µg/mL | > 30 µg/mL | > 30 µg/mL | > 30 µg/mL | > 30 µg/mL | – |
